pEC50: −log10 of the molar value.
Target: T1, human somatostatin receptor subtype 2 (Homo sapiens, UniProt P30874)
T1 construct: expressed in transfected cells; host or cells: CHO (Chinese hamster ovary) cells, G-418 selected
Assay: cAMP assay (functional assay for SSTR2 agonists)
Format: cell-based
Conditions: CHO cells expressing human SSTR2; intracellular cAMP with forskolin, HTRF; read-out: SSTR2a EC50
Method in brief: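 CHO cells expressing human SSTR2 were treated with compound for 15 min at 37° C in buffer with forskolin, 0.2 mM IBMX and 0.1% BSA. Intracellular cAMP was read by HTRF after 1-24 h lysis at room temperature, and EC50 came from cAMP versus compound concentration curves.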

T1 sequence (P30874 whole entry): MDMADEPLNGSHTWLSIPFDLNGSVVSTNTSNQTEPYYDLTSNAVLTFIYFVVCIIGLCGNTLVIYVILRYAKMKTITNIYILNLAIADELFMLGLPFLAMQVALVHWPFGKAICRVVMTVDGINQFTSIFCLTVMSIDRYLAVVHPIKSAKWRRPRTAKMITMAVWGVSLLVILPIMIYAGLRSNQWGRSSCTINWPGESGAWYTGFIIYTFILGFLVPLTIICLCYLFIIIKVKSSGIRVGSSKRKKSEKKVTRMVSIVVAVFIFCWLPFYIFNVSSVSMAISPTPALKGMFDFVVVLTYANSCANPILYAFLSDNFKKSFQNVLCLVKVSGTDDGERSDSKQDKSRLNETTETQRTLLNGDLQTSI

SMILES	pEC50
Cc1cc(Cl)cc(N2C=Nc3cc(C)c(-c4ccncc4Cl)cc3C2C(=O)N(C)C[C@@H]2CCCN2)c1 (stereo partly drawn) [Compound 2-26, 3-(3-chloro-5-methylphenyl)-6-(3-chloropyridin-4-yl)-N,7-dimethyl-N-[(2S)-pyrrolidin-2-ylmethyl]-3,4-dihydroquinazoline-4-carboxamide]	6.00 to 7.00
Cc1cc(Cl)cc(N2C=Nc3cc(C)c(-c4ccnc(C#N)c4)cc3C2C(=O)N(C)C[C@@H]2CCCN2)c1 (stereo partly drawn) [Compound 2-27, 3-(3-chloro-5-methylphenyl)-6-(2-cyanopyridin-4-yl)-N,7-dimethyl-N-[(2S)-pyrrolidin-2-ylmethyl]-3,4-dihydroquinazoline-4-carboxamide]	6.00 to 7.00
COc1c(C#N)cccc1-c1cc2c(cc1C)N=CN(c1cc(C)cc(Cl)c1)C2C(=O)N(C)C[C@@H]1CCCN1 (stereo partly drawn) [Compound 2-28, 3-(3-chloro-5-methylphenyl)-6-(3-cyano-2-methoxyphenyl)-N,7-dimethyl-N-[(2S)-pyrrolidin-2-ylmethyl]-3,4-dihydroquinazoline-4-carboxamide]	> 7.00
Cc1cc(Cl)cc(N2C=Nc3cc(C)c(-c4cc(C(N)=O)ccc4Cl)cc3C2C(=O)N(C)C[C@@H]2CCCN2)c1 (stereo partly drawn) [Compound 2-29, 6-(5-carbamoyl-2-chlorophenyl)-3-(3-chloro-5-methylphenyl)-N,7-dimethyl-N-[(2S)-pyrrolidin-2-ylmethyl]-3,4-dihydroquinazoline-4-carboxamide]	> 7.00
COc1cccc(-c2cc3c(cc2C)N=CN(c2cc(C)cc(Cl)c2)C3C(=O)N(C)C[C@@H]2CCCN2)c1C#N (stereo partly drawn) [Compound 2-30, 3-(3-chloro-5-methylphenyl)-6-(2-cyano-3-methoxyphenyl)-N,7-dimethyl-N-[(2S)-pyrrolidin-2-ylmethyl]-3,4-dihydroquinazoline-4-carboxamide]	> 7.00
Cc1cc(Cl)cc(N2C=Nc3cc(C)c(-c4cccc(O)c4C#N)cc3C2C(=O)N(C)C[C@@H]2CCCN2)c1 (stereo partly drawn) [Compound 2-31, 3-(3-chloro-5-methylphenyl)-6-(2-cyano-3-hydroxyphenyl)-N,7-dimethyl-N-[(2S)-pyrrolidin-2-ylmethyl]-3,4-dihydroquinazoline-4-carboxamide]	6.00 to 7.00

Further lines, results first:

pEC50	SMILES
> 7.00	Cc1cc(Cl)cc(N2C=Nc3cc(C)c(-c4ccc(O)c(F)c4)cc3C2C(=O)N(C)C[C@@H]2CCCN2)c1 (stereo partly drawn) [Compound 2-32, 3-(3-chloro-5-methylphenyl)-6-(3-fluoro-4-hydroxyphenyl)-N,7-dimethyl-N-[(2S)-pyrrolidin-2-ylmethyl]-3,4-dihydroquinazoline-4-carboxamide]
> 7.00	Cc1cc(Cl)cc(N2C=Nc3cc(C)c(-c4ccc5[nH]c(=O)[nH]c5c4)cc3C2C(=O)N(C)C[C@@H]2CCCN2)c1 (stereo partly drawn) [Compound 2-34, 3-(3-chloro-5-methylphenyl)-N,7-dimethyl-6-(2-oxo-2,3-dihydro-1H-1,3-benzodiazol-5-yl)-N-[(2S)-pyrrolidin-2-ylmethyl]-3,4-dihydroquinazoline-4-carboxamide]
> 7.00	COc1cc(F)cc(-c2cc3c(cc2C)N=CN(c2cc(C)cc(Cl)c2)C3C(=O)N(C)C[C@@H]2CCCN2)c1 (stereo partly drawn) [Compound 2-35, 3-(3-chloro-5-methylphenyl)-6-(3-fluoro-5-methoxyphenyl)-N,7-dimethyl-N-[(2S)-pyrrolidin-2-ylmethyl]-3,4-dihydroquinazoline-4-carboxamide]
